Earlier results as cited in patent publication US6384084B2, “Histochrome and its therapeutic use in ophthalmology” (Tikhookeansky Institut Bioorganicheskoi Khimii …, priority 1998, dated 2002).

How the values were obtained:
[1] = patients, 0.5% solution
[2] = rabbits, 0.5% solution, subconjunctival and parabulbar

SMILES	Resorption of intraocular hemorrhages (injection of a 1% solution)	Adverse effect in the course of therapy (monitoring of blood coagulation required)	Pain at the time of administration [1]	Effect on epithelization of the cornea and inflammatory processes in eye burns [2]
CCc1nc(C)ccc1O [Emoxipin]	facilitates the resorption of intraocular hemorrhages	liable to cause reccurrent hemorrhages	–	–
CCc1c(O)c(O)c2c(c1O)C(=O)C(O)=C(O)C2=O [echinochrome, 2,3,5,6,8-pentahydroxy-7-ethyl-1,4-naphthoquinone]	–	–	patients experienced acute pain at the time of administration	able to facilitate epithelization of the cornea at early stages of the treatment of eye burns and to alleviate inflammatory processes in the eye
